Test results reported in US20100144781A1, “METHODS OF TREATING PSYCHOSIS AND SCHIZOPHRENIA BASED ON POLYMORPHISMS IN THE ERBB4 GENE” (priority 2008, published 2010).

System: subjects with schizophrenia
Test: Change in PANSS total score by rs6435681 (ErbB4) genotype, pooled paliperidone arms of clinical trial Nos. 1-4
Format: in vivo, human
Settings: trials 1-4; for mean reduction in PANSS total score: baseline to end of study
Procedure: The paliperidone treated arms of clinical trial Nos. 1-4, were pooled and examined for genetic association. The trial Nos. 1-3 were paliperidone ER phase III studies and trial No. 4 was a paliperidone palmitate phase II/III study. To confirm results of the initial genetic association, additional paliperidone treated cohorts, including paliperidone palmitate phase III clinical trial Nos 5-8 and paliperidone ER phase III/IV trial Nos. 9 and 10 were evaluated. The results were further examined with the placebo arms of trial Nos. 1-4 and 6-10, the olanzapine arms of trial Nos. 1-3 and 11, the quetiapine arm of trial No. 9, and the Risperdal Consta arm of the trials No. 5 and 11.
Trial Nos. 1 to 3 were randomized, double-blind, placebo and active controlled phase III trials that were designed to evaluate efficacy and safety of paliperidone-ER in the acute treatment of subjects with schizophrenia. Schizophrenic patients experiencing active symptoms, with Positive and Negative […] (PANSS) score=70-120, were enrolled and randomized to different treatment groups. The patients received paliperidone-ER of 3 mg, 6 mg, 9 mg, 12 mg, or 15 mg, olanzapine of 10 mg or placebo tablet once daily for 6 weeks. Primary efficacy variable/Primary Time point was changed in the total PANSS score from baseline to endpoint. The baseline value was the measurement from the last visit prior to or including the first day of dosing with double-blind study medication, and the endpoint value was the measurement at the end of the double-blind phase or the last post-baseline observation during the double-blind phase. Detailed clinical study design and outcomes of trial Nos. 1-3 were described elsewhere (Marder et al., Biol Psychiatry. 2007, 62:1363-70; Davidson et al., Schizophr Res. 2007, 93:117-30; Kane et al., Schizophr Res. 2007, 90:147-61. Epub).
Trial No. 4 was a randomized, double-blind, placebo-controlled phase II/III study to evaluate the efficacy and safety of long-acting injections of paliperidone palmitate at fixed doses of 50 and 100 mg equivalent in subjects with schizophrenia. Subjects were required to have a total PANSS score between 70 and 120 at Screening and between 60 and 120 on Day 1 prior to the start of double-blind treatment. The primary efficacy variable was the change in total PANSS score from the start of the double-blinded treatment period to the last post-randomization assessment in the double-blinded treatment period.
DNA collected from subjects who consented to the optional pharmacogenomic component of the above clinical trials were analyzed in the genetic study. Briefly, blood samples were collected from subjects and extracted for genomic DNA. […]

For Cc1nc2n(c(=O)c1CCN1CCC(c3noc4cc(F)ccc34)CC1)CCCC2O (stereo not shown) [Paliperidone], the “mean reduction in PANSS total score” value (patients with AA genotype at rs6435681 (N=25)) was 0.6, the “patients displaying a 30% or higher reduction in PANSS total score from baseline” value (patients with AA genotype) was 8% and the “mean reduction in PANSS total score” value (patients with GG or GA genotype at rs6435681 (N=659)) was 17.8. The “patients displaying a 30% or higher reduction in PANSS total score from baseline” value (patients with GG/GA genotype) was “Twenty-nine”.
